From patent US7605265B2, “Heterodimers and methods of using them” (priority 2007, dated 2009)

What was measured:
[1] = tested on: transient focal ischemia; assay: MCAO (middle carotid artery occlusion model), transient focal ischemia; type: in vivo, mice
Description: The MCAO (middle carotid artery occlusion model) was performed to investigate the protective effects of compounds A, B and C on the brain when the brain was exposed to transient focal ischemia (lack of oxygen), emulating brain conditions during a stroke. […] The ability of the novel compounds to protect against the appearance of these neurological deficits was examined using a four-point scale neurological scoring system (Mann Whitney U test). For each of the following observable signs, the distribution of test subjects was noted (with and without treatment with the invention after ischemia): (0) no observable neurological deficits (normal); (1) failure to extend the left forepaw fully (mild); (2) circling to the contralateral side (moderate); and (3) loss of walking and righting reflex (severe). • (ii) The brains of the test subjects slices were sectioned into five pieces and the infarct area and volume of each slice was measured. The % of infarct area in test subjects treated with the invention after ischemia was compared to that of the control group for each brain slice. • (iii) Hemispheric brain swelling and infarct volume (the area of dead tissue caused by inadequate blood supply) was measured for test subjects treated with the invention after ischemia, and compared to that of the control group.
The compounds were administered 5 minutes after ischemia, 5 minutes after reperfusion, or 6 hours after ischemia. FIGS. 5a to 5f show results for the heterodimers compound B, C or A respectively, when administered 5 minutes after ischemia or reperfusion. FIGS. 5g and 5h show the results when the novel heterodimers were administered 6 hours after ischemia.
Compound B was administered at 5 minutes after ischemia. Distribution of neurological scores based on a four-point scale neurological scoring system (Mann Whitney U test): (0) no observable neurological deficits (normal); (1) failure to extend the left forepaw fully (mild); (2) circling to the contralateral side (moderate); and (3) loss of walking and righting reflex (severe).
The brain was sectioned into five pieces, each 2-mm thick. The infarct area of each posterior surface was analyzed by an image analysis program. The percentage of infarct area and volume were calculated and presented as the percentage of the infarct area of the contralateral hemisphere to eliminate the contribution of edema to the ischemic lesion.
The infarct area of each posterior surface was analyzed by an image analysis program. Hemispheric brain swelling was calculated as follows (ipsilateral volume−contralateral volume)/contralateral volume×100%.

[2] = molecular target: T1, butyrylcholinesterase (BChE) (Rattus norvegicus, UniProt Q9JKC1); assay: biochemical
T1 construct: from tissue; host or cells: rat serum
T1 sequence (Q9JKC1 24-597): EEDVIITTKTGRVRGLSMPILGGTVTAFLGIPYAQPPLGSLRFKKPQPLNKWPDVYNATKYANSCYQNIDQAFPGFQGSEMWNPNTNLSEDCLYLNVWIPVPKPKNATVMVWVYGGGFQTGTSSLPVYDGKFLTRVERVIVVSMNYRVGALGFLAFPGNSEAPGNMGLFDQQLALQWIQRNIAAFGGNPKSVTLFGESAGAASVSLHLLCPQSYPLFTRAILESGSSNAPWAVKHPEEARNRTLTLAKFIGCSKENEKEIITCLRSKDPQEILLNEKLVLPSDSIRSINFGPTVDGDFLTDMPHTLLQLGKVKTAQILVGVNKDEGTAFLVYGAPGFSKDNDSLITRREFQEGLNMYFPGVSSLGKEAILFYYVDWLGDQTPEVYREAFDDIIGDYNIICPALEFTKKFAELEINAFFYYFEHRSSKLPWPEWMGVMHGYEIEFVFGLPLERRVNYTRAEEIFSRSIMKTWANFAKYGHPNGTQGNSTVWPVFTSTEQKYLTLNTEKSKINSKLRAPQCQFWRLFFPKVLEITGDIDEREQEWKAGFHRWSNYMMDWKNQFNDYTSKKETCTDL

[3] = molecular target: T2, acetylcholinesterase (AChE) (Rattus norvegicus, UniProt P37136); assay: In vitro inhibition of AChE (cholinesterase assay, Ellman method); type: biochemical
T2 construct: from tissue; host or cells: rat brain cortex
T2 sequence (P37136 32-614): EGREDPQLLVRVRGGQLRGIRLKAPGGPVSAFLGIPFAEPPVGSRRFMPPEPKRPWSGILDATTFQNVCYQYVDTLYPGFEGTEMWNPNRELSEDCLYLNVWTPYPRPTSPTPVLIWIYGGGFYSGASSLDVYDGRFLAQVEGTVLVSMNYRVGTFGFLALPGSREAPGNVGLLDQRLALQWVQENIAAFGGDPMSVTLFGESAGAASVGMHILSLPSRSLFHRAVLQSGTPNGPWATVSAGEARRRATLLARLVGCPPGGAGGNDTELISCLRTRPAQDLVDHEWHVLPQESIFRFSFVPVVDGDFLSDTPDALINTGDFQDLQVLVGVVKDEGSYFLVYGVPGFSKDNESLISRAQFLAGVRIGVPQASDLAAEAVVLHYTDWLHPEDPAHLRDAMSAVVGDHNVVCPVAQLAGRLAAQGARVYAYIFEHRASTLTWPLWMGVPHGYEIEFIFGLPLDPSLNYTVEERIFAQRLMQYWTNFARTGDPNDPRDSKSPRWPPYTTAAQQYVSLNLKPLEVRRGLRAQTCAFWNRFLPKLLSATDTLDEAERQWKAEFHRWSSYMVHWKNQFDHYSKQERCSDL
Description: The in vitro inhibition of the enzymes acetylcholinesterase (AChE) and butyrylcholinesterase (BChE) were assessed. BChE, like AChE, breaks down acetylcholine (ACh) but is found in plasma and other organs such as the liver, skin and gastrointestinal tract.
The enzymes, AChE and BChE, used in the inhibition studies were prepared from the cortex and serum of decapitated rats, respectively.

[4] = 0.005 μg/kg, 5 minutes after reperfusion
[5] = 0.005 μg/kg, 6 hours after ischemia
[6] = 0.05 μg/kg, 5 minutes after reperfusion
[7] = 0.05 μg/kg, 6 hours after ischemia

Q: For O=c1ccc2c([nH]1)CCCC2NCCCCCCCCNc1c2c(nc3cc(Cl)ccc13)CCCC2 (stereo not drawn) [Compound C], which “% Infarct area in brain slice # 1” value [1, 4] is on record?
A: The value was 18.8 ± 3.3%.

Q: What about the “% Infarct area in brain slice # 2” value [1, 4] of the same compound?
A: The value was 47.8 ± 3.0%.

Q: And the “% Infarct area in brain slice # 3” value [1, 4]?
A: The value was 45.4 ± 1.8%.

Q: What about the “% Infarct area in brain slice # 4” value [1, 4] of the same compound?
A: Its value is 18.5 ± 3.8 %.

Q: And the “% Infarct area in brain slice # 5” value [1, 4]?
A: Its value is 0.6 ± 0.5%.

Q: What about the “Hemispheric swelling (%)” value [1, 4] of the same compound?
A: Its value is 7.1 ± 1.0 %.

Q: And the “Infarct volume (%)” value [1, 4]?
A: Its value is 30.1 ± 1.5 %.

Q: What about the “Observed Neurological Deficits Mean ± SEM” value [1, 4] of the same compound?
A: The value was 1.0 ± 0.0.

Q: And the “Observed Neurological Deficits, score 0 (number of animals)” value [1, 4]?
A: The value was 0.

Q: And the “Observed Neurological Deficits, score 1 (number of animals)” value [1, 4]?
A: The value was 9.

Q: What about the “Observed Neurological Deficits, score 2 (number of animals)” value [1, 4] of the same compound?
A: Its value is 0.

Q: What about the “Observed Neurological Deficits, score 3 (number of animals)” value [1, 4] of the same compound?
A: Its value is 0.

Q: And the “n (dead/total): dead/total” value [1, 4]?
A: The value was 9 (1/10).

Q: And the “% Infarct area in brain slice # 1” value [1, 5]?
A: The value was 15.9 ± 4.0%.

Q: What about the “% Infarct area in brain slice # 2” value [1, 5] of the same compound?
A: Its value is 40.2 ± 7.9%.

Q: What about the “% Infarct area in brain slice # 3” value [1, 5] of the same compound?
A: The value was 35.5 ± 5.3 %.

Q: What about the “% Infarct area in brain slice # 4” value [1, 5] of the same compound?
A: Its value is 12.5 ± 4.9 %.

Q: What about the “% Infarct area in brain slice # 5” value [1, 5] of the same compound?
A: The value was −0.8 ± 0.8%.

Q: And the “Hemispheric swelling (%)” value [1, 5]?
A: The value was 6.2 ± 1.2%.

Q: What about the “Infarct volume (%)” value [1, 5] of the same compound?
A: Its value is 23.9 ± 4.3 %.

Q: And the “Observed Neurological Deficits Mean ± SEM” value [1, 5]?
A: Its value is 1.3 ± 0.2.

Q: And the “Observed Neurological Deficits, score 0 (number of animals)” value [1, 5]?
A: Its value is 0.

Q: What about the “Observed Neurological Deficits, score 1 (number of animals)” value [1, 5] of the same compound?
A: The value was 6.

Q: And the “Observed Neurological Deficits, score 2 (number of animals)” value [1, 5]?
A: Its value is 2.

Q: What about the “Observed Neurological Deficits, score 3 (number of animals)” value [1, 5] of the same compound?
A: The value was 0.

Q: What about the “n (dead/total): dead/total” value [1, 5] of the same compound?
A: The value was 8 (1/9).

Q: What about the “% Infarct area in brain slice # 1” value [1, 6] of the same compound?
A: The value was 12.8 ± 3.3%.

Q: What about the “% Infarct area in brain slice # 2” value [1, 6] of the same compound?
A: The value was 54.0 ± 4.1%.

Q: And the “% Infarct area in brain slice # 3” value [1, 6]?
A: Its value is 51.4 ± 3.1%.

Q: And the “% Infarct area in brain slice # 4” value [1, 6]?
A: The value was 26.2 ± 6.7%.

Q: And the “% Infarct area in brain slice # 5” value [1, 6]?
A: Its value is −1.0 ± 0.8%.

Q: What about the “Hemispheric swelling (%)” value [1, 6] of the same compound?
A: The value was 7.4 ± 1.0 %.

Q: And the “Infarct volume (%)” value [1, 6]?
A: The value was 34.5 ± 3.7%.

Q: And the “Observed Neurological Deficits Mean ± SEM” value [1, 6]?
A: The value was 1.3 ± 0.2.

Q: And the “Observed Neurological Deficits, score 0 (number of animals)” value [1, 6]?
A: Its value is 0.

Q: What about the “Observed Neurological Deficits, score 1 (number of animals)” value [1, 6] of the same compound?
A: The value was 4.

Q: What about the “Observed Neurological Deficits, score 2 (number of animals)” value [1, 6] of the same compound?
A: The value was 2.

Q: What about the “Observed Neurological Deficits, score 3 (number of animals)” value [1, 6] of the same compound?
A: Its value is 0.

Q: What about the “n (dead/total): dead/total” value [1, 6] of the same compound?
A: The value was 6 (1/7).

Q: And the “% Infarct area in brain slice # 1” value [1, 7]?
A: Its value is 11.7 ± 3.3%.

Q: What about the “% Infarct area in brain slice # 2” value [1, 7] of the same compound?
A: Its value is 38.0 ± 6.8 %.

Q: What about the “% Infarct area in brain slice # 3” value [1, 7] of the same compound?
A: Its value is 32.5 ± 6.6 %.

Q: What about the “% Infarct area in brain slice # 4” value [1, 7] of the same compound?
A: Its value is 16.8 ± 6.0%.

Q: And the “% Infarct area in brain slice # 5” value [1, 7]?
A: Its value is 0.5 ± 0.4%.

Q: And the “Hemispheric swelling (%)” value [1, 7]?
A: The value was 5.0 ± 1.2%.

Q: What about the “Infarct volume (%)” value [1, 7] of the same compound?
A: The value was 23.5 ± 4.4 %.

Q: And the “Observed Neurological Deficits Mean ± SEM” value [1, 7]?
A: The value was 1.3 ± 0.2.

Q: And the “Observed Neurological Deficits, score 0 (number of animals)” value [1, 7]?
A: The value was 0.

Q: And the “Observed Neurological Deficits, score 1 (number of animals)” value [1, 7]?
A: The value was 6.

Q: What about the “Observed Neurological Deficits, score 2 (number of animals)” value [1, 7] of the same compound?
A: Its value is 2.

Q: And the “Observed Neurological Deficits, score 3 (number of animals)” value [1, 7]?
A: The value was 0.

Q: And the “n (dead/total): dead/total” value [1, 7]?
A: Its value is 8 (1/9).

Q: What about the “infarct area in brain slices (in words)” value ([1]; 5 minutes after reperfusion, FIG. 5c) of the same compound?
A: The value was “reduction in infarct area of brain slices #4”.

Q: And the “infarct size and hemispheric swelling (in words)” value ([1]; 5 minutes after reperfusion, FIG. 5d)?
A: Its value is “reduced infarct size and hemispheric swelling”.

Q: What about the “infarct area (in words)” value ([1]; 6 hours after ischemia, FIG. 5g) of the same compound?
A: Its value is “improvement in the infarct area”.

Q: And the “infarct volume (in words)” value ([1]; 6 hours after ischemia, FIG. 5h)?
A: Its value is “decreases infarct volume”.

Q: And the “neurological deficits induced by ischemia (in words)” value ([1]; administered 5 minutes after reperfusion)?
A: Its value is “reduced neurological deficits induced by ischemia”.

Q: And the “neurological deficits (in words)” value ([1]; administration 6 hours after ischemia)?
A: The value was “reduced neurological deficits”.

Q: What about the IC50 [2] of the same compound?
A: The IC50 was 638 ± 122 nM.

Q: And the “times more potent than bis(7)-tacrine” value ([3]; AChE inhibition)?
A: The value was roughly 1039.

Q: What about the “times more potent than tacrine” value ([3]; AChE inhibition) of the same compound?
A: Its value is roughly 11000.

Q: What about the “Selectivity AchE*” value ([3]; IC50 (BChE)/IC50 (AChE)) of the same compound?
A: Its value is 50317.32.

Q: And the IC50 ([3]; enzyme prepared from rat cortex)?
A: The IC50 was 0.0127 ± 0.002 nM.
